Data set [1] is described as follows: In vitro delivery of pyroglutamic acid to stratum corneum of the rat (tritiated esters on newborn rat skin, resistant to 2 h water washing). Type of data set: in vitro ADME. The protocol: In vitro evidence to confirm delivery of pyroglutamic acid to stratum corneum of the rat
In an in vitro laboratory test, esters of pyroglutamic acid labelled with ^3 H on the pyroglutamic acid residue were applied as a 1% by weight solution in ethanol to newborn rat skin held in a glass cell, allowing the dermal side of the skin to be bathed in a buffered salts solution while the epidermal surface was exposed to normal atmospheric conditions. After 24 hours, samples of skin were taken and washed with continuous agitation in several charges of water at room temperature.
Interfollicular epidermis was removed from these skin pieces by "freeze scraping"-which avoids contamination of the sample by follicular tissue or material trapped within the hair follicle. The epidermis was then extracted in methanol and the soluble extract analysed by column chromatography. The amount of tritiated pyroglutamic acid present in the epidermis in a form resistant to a period of 2 hours continuous washing with water was measured. The quantity of tritiated pyroglutamic acid delivered and retained by the skin in this way is recorded in Table 1 below: […]

The nature of data set [2]: In vivo delivery to human stratum corneum (tritiated esters applied to arms of volunteers, tape stripping). The conditions noted are these: 18 hours; for Pyroglutamic acid delivered, Ethanol base: 1% w/v in anhydrous ethanol; for Pyroglutamic acid delivered, Cream base: 1% w/v in oil-in-water emulsion base. From the text: Accordingly, [^3 H] esters of pyroglutamic acid were each dissolved at 1% w/v in anhydrous ethanol or in an oil-in-water emulsion base. […] The [^3 H] pyroglutamic acid was separated from unchanged ester by chromotography on AG1X8 resin and the amount delivered to the skin expressed as nmoles per mg of stratum corneum protein.

Where two headings read alike, the source gives them in different places.

`CCCCOC(=O)[C@@H]1CCC(=O)N1` [Pyroglutamic acid, n-butyl ester, pyroglutamic acid n-butyl ester]: the Pyroglutamic acid delivered in data set [1] was determined as 17 ± 8 n moles/cm^2 skin. In addition, in data set [2], the “Pyroglutamic acid delivered, Ethanol base” value was found to be 6 n mol/mg protein and the “Pyroglutamic acid delivered, Cream base” value was found to be 2 n mol/mg protein.

`CCCCCCCCCCCCOC(=O)[C@@H]1CCC(=O)N1` [Dodecyl, pyroglutamic acid n-dodecyl ester]: in data set [2], the “Pyroglutamic acid delivered, Ethanol base” value is 4 n mol/mg protein and the “Pyroglutamic acid delivered, Cream base” value is reported as 1 n mol/mg protein.

Take `COC(=O)[C@@H]1CCC(=O)N1` [Pyroglutamic acid, methyl ester, pyroglutamic acid methyl ester]: the Pyroglutamic acid delivered in data set [1] is recorded as 17 ± 5 n moles/cm^2 skin.

With `CCOC(=O)[C@@H]1CCC(=O)N1` [Pyroglutamic acid, ethyl ester, pyroglutamic acid ethyl ester], the Pyroglutamic acid delivered in data set [1] (1% by weight in ethanol, newborn rat skin, 24 hours, resistant to 2 hours continuous washing with water) was 18 ± 5 n moles/cm^2 skin. In data set [2], the “Pyroglutamic acid delivered, Ethanol base” value is on record as 8 n mol/mg protein and the “Pyroglutamic acid delivered, Cream base” value came out at 5 n mol/mg protein.

Compound `CCCCCCOC(=O)[C@@H]1CCC(=O)N1` [Pyroglutamic acid, n-hexyl ester, pyroglutamic acid n-hexyl ester] had a Pyroglutamic acid delivered in data set [1] of 32 ± 10 n moles/cm^2 skin. Besides, in data set [2], the “Pyroglutamic acid delivered, Ethanol base” value came out at 5 n mol/mg protein and the “Pyroglutamic acid delivered, Cream base” value stood at 2 n mol/mg protein.

As to `CCCCCCCCOC(=O)[C@@H]1CCC(=O)N1` [Pyroglutamic acid, n-octyl ester, pyroglutamic acid n-octyl ester], in data set [1], the Pyroglutamic acid delivered was 36 ± 7 n moles/cm^2 skin and the “delivery to the stratum corneum of pyroglutamic acid which resisted washing out with water (in words)” value is listed as “best result”. Also, in data set [2], the “Pyroglutamic acid delivered, Ethanol base” value is reported as 4 n mol/mg protein and the “Pyroglutamic acid delivered, Cream base” value stood at 1 n mol/mg protein.

In the case of `O=C1CCC(C(=O)O)N1` (stereo not shown) [pyroglutamic acid, 2-pyrrolidone-5-carboxylic acid, reference compound], the “amount recovered from / reaching the stratum corneum following topical application (in words)” value in data set [2] is “little pyroglutamic acid reached the stratum corneum if applied as the free acid”; in data set [2] (listed as [^3 H] pyroglutamic acid), “negligible amount”.

The compound `CCCOC(=O)[C@@H]1CCC(=O)N1` [Pyroglutamic acid, n-propyl ester, pyroglutamic acid n-propyl ester] came in with a Pyroglutamic acid delivered in data set [1] of 21 ± 8 n moles/cm^2 skin.

The values are drawn from US5045559A, “Treatment of skin disorders” (priority 1988, dated 1991).
